# Laboratory results taken from article PMC6134108, “Nystatin-like Pseudonocardia polyene B1, a novel disaccharide-containing antifungal heptaene antibiotic” (Scientific Reports, 2018).
# Read-outs that look alike come from different tables or passages of the source.
# How the values were obtained:
# [1] = 1 mg/kg dose
# ICR mice [2] = test: 7-day repeated intravenous dose toxicity; format: in vivo
# Procedure: (§1) All in vivo mouse toxicity studies were conducted according to Testing Guidelines for Safety Evaluation of Drugs[32] and the Organisation for Economic Co-operation and Development (OECD) Guideline[33]. Male and female ICR mice were used 7 weeks old for the toxicity test. […]
# [3] = 7-day repeated intravenous dose toxicity; format: in vivo, mice; settings: both sexes, ICR, mouse, in vivo; mice, 7-day repeated intravenous doses; read-out: MTD, maximal tolerated dose
# Procedure: as §1
# [4] = tested on: Saccharomyces cerevisiae ATCC9035; test: MIC assay (CLSI M27-A3 microbroth); format: cell-based; settings: Saccharomyces cerevisiae ATCC9035; read-out: Antifungal activity (MIC)
# Procedure: (§2) For the minimum inhibitory concentration (MIC) assay, strains for testing were grown on YPD agar for 24 hours, and subcultured to YPD broth medium. Whole strains were incubated for 18 hours at 35 °C by shaking incubator. Grown organisms were diluted with fresh RPMI 1640 medium to appropriate concentration, 5 × 10^4 CFU/ml. Cultures were inoculated to 96-well plates containing antifungal medium. All compounds were dissolved using Dimethyl Sulfoxide (DMSO) and diluted broth media. Fungal diluted solution and antifungal medium were mixed at 1:1 ratio so total 200 ul mixed medium was made. Whole experiment plates were incubated for 24 hours at 37 °C. […] The MICs were calculated in duplicate using the Clinical and Laboratory Standards Institute M27-A3 microbroth methodology. Hemolysis experiments and the 3-(4,5-dimethylthiazol-2-yl)-5-(3-carboxymethoxyphenyl)-2-(4-sulfophenyl)-2H-tetrazolium (MTS) cell proliferation colorimetric assay were performed following known procedures[12],[27],[29].
# C. albicans SL28 = test: MIC assay (CLSI M27-A3 microbroth); format: cell-based; settings: Candida albicans; C. albicans SL28; no visible growth; read-out: Antifungal activity (MIC)
# Procedure: as §2
# C. albicans SL38 = test: MIC assay (CLSI M27-A3 microbroth); format: cell-based; settings: Candida albicans; C. albicans SL38; no visible growth; read-out: Antifungal activity (MIC)
# Procedure: as §2
# [5] = tested on: Candida albicans KCTC7965; test: MIC assay (CLSI M27-A3 microbroth); format: cell-based; settings: Candida albicans KCTC7965; no visible growth; read-out: Antifungal activity (MIC)
# Procedure: as §2
# [6] = tested on: Cryptococcus humicola ATCC9949; test: MIC assay (CLSI M27-A3 microbroth); format: cell-based; settings: Vanrija humicola; Cryptococcus humicola ATCC9949; read-out: Antifungal activity (MIC)
# Procedure: as §2
# C. albicans SC5314 = test: MIC assay (CLSI M27-A3 microbroth); format: cell-based; settings: Candida albicans; C. albicans SC5314; no visible growth; read-out: Antifungal activity (MIC)
# Procedure: as §2
# ICR mice [7] = test: Single intravenous dose acute toxicity; format: in vivo
# Procedure: (§3) All in vivo mouse toxicity studies were conducted according to Testing Guidelines for Safety Evaluation of Drugs[32] and the Organisation for Economic Co-operation and Development (OECD) Guideline[33]. Male and female ICR mice were used 7 weeks old for the toxicity test. […] The single doses were 1, 2.5, and 5 mg per kg body weight.
# [8] = Single intravenous dose acute toxicity; format: in vivo, mice; settings: ICR, mouse, in vivo, single intravenous administration
# Procedure: as §3
# horse blood cells = format: cell-based; settings: 90% hemolysis against horse blood cells; ± percentage standard deviation
# Procedure: as §2
# [9] = tested on: ergosterol-containing membranes; test: Preliminary SPR experiments; format: binding; settings: ergosterol-containing membranes, unpublished data
# in vivo [10] = settings: mouse, 1 mg/kg
# From the text: Supplement 41598_2018_31801_MOESM1_ESM.docx, table 4: Table S4.
# in vivo [11] = settings: male, SD, rat, iv, 0.5 mg/kg
structure (smiles),measurement,setting,value
"C[C@@H]1[C@H](O)[C@@H](C)/C=C/C=C/C=C/C=C/C=C/C=C/C=C/[C@H](O[C@@H]2O[C@H](C)[C@@H](O)[C@H](N)[C@@H]2O)C[C@@H]2O[C@](O)(C[C@@H](O)C[C@@H](O)[C@H](O)CC[C@@H](O)C[C@@H](O)CC(=O)O[C@H]1C)C[C@H](O)[C@H]2C(=O)O [Amphotericin B, amphotericin B]",lethality in rats,[1],killed all the tested rats
same,Deaths on day after start of treatment,"ICR mice [2]; female, repeated iv 0.5mg/kg, day 0",0
same,Deaths on day after start of treatment,"ICR mice [2]; female, repeated iv 0.5mg/kg, day 1",0
same,Deaths on day after start of treatment,"ICR mice [2]; female, repeated iv 0.5mg/kg, day 2",0
same,Deaths on day after start of treatment,"ICR mice [2]; female, repeated iv 0.5mg/kg, day 3",0
same,Deaths on day after start of treatment,"ICR mice [2]; female, repeated iv 0.5mg/kg, day 4",0
same,Deaths on day after start of treatment,"ICR mice [2]; female, repeated iv 0.5mg/kg, day 5",0
same,Deaths on day after start of treatment,"ICR mice [2]; female, repeated iv 0.5mg/kg, day 6",0
same,Deaths on day after start of treatment,"ICR mice [2]; female, repeated iv 0.5mg/kg, day 7",0
same,Deaths on day after start of treatment,"ICR mice [2]; female, repeated iv 1.5mg/kg, day 0",0
same,Deaths on day after start of treatment,"ICR mice [2]; female, repeated iv 1.5mg/kg, day 1",0
same,Deaths on day after start of treatment,"ICR mice [2]; female, repeated iv 1.5mg/kg, day 2",0
same,Deaths on day after start of treatment,"ICR mice [2]; female, repeated iv 1.5mg/kg, day 3",0
same,Deaths on day after start of treatment,"ICR mice [2]; female, repeated iv 1.5mg/kg, day 4",0
same,Deaths on day after start of treatment,"ICR mice [2]; female, repeated iv 1.5mg/kg, day 5",0
same,Deaths on day after start of treatment,"ICR mice [2]; female, repeated iv 1.5mg/kg, day 6",0
same,Deaths on day after start of treatment,"ICR mice [2]; female, repeated iv 1.5mg/kg, day 7",0
same,Deaths on day after start of treatment,"ICR mice [2]; male, repeated iv 0.5mg/kg, day 0",0
same,Deaths on day after start of treatment,"ICR mice [2]; male, repeated iv 0.5mg/kg, day 1",0
same,Deaths on day after start of treatment,"ICR mice [2]; male, repeated iv 0.5mg/kg, day 2",0
same,Deaths on day after start of treatment,"ICR mice [2]; male, repeated iv 0.5mg/kg, day 3",0
same,Deaths on day after start of treatment,"ICR mice [2]; male, repeated iv 0.5mg/kg, day 4",0
same,Deaths on day after start of treatment,"ICR mice [2]; male, repeated iv 0.5mg/kg, day 5",0
same,Deaths on day after start of treatment,"ICR mice [2]; male, repeated iv 0.5mg/kg, day 6",0
same,Deaths on day after start of treatment,"ICR mice [2]; male, repeated iv 1.5mg/kg, day 0",0
same,Deaths on day after start of treatment,"ICR mice [2]; male, repeated iv 1.5mg/kg, day 1",0
same,Deaths on day after start of treatment,"ICR mice [2]; male, repeated iv 1.5mg/kg, day 2",0
same,Deaths on day after start of treatment,"ICR mice [2]; male, repeated iv 1.5mg/kg, day 3",0
same,Deaths on day after start of treatment,"ICR mice [2]; male, repeated iv 1.5mg/kg, day 4",0
same,Deaths on day after start of treatment,"ICR mice [2]; male, repeated iv 1.5mg/kg, day 5",0
same,Deaths on day after start of treatment,"ICR mice [2]; male, repeated iv 1.5mg/kg, day 6",1
same,MTD at 7 days,[3],1.5 mg/kg
same,MIC,[4],1 µg/mL
same,MIC,C. albicans SL28,1 µg/mL
same,MIC,C. albicans SL38,1 µg/mL
same,MIC,[5],1 µg/mL
same,MIC,[6],0.5 µg/mL
same,MIC,C. albicans SC5314,1 µg/mL
same,Deaths on day after start of treatment,"ICR mice [7]; female, single iv 1mg/kg, day 0",0
same,Deaths on day after start of treatment,"ICR mice [7]; female, single iv 1mg/kg, day 1",0
same,Deaths on day after start of treatment,"ICR mice [7]; female, single iv 1mg/kg, day 2",1
same,Deaths on day after start of treatment,"ICR mice [7]; female, single iv 1mg/kg, day 3",0
same,Deaths on day after start of treatment,"ICR mice [7]; female, single iv 1mg/kg, day 4",0
same,Deaths on day after start of treatment,"ICR mice [7]; female, single iv 1mg/kg, day 5",0
same,Deaths on day after start of treatment,"ICR mice [7]; female, single iv 1mg/kg, day 6",0
same,Deaths on day after start of treatment,"ICR mice [7]; female, single iv 1mg/kg, day 7",0
same,Deaths on day after start of treatment,"ICR mice [7]; female, single iv 2.5mg/kg, day 0",0
same,Deaths on day after start of treatment,"ICR mice [7]; female, single iv 2.5mg/kg, day 1",1
same,Deaths on day after start of treatment,"ICR mice [7]; female, single iv 2.5mg/kg, day 2",3
same,Deaths on day after start of treatment,"ICR mice [7]; female, single iv 2.5mg/kg, day 3",0
same,Deaths on day after start of treatment,"ICR mice [7]; female, single iv 2.5mg/kg, day 4",0
same,Deaths on day after start of treatment,"ICR mice [7]; female, single iv 2.5mg/kg, day 5",0
same,Deaths on day after start of treatment,"ICR mice [7]; female, single iv 2.5mg/kg, day 6",1
same,Deaths on day after start of treatment,"ICR mice [7]; female, single iv 2.5mg/kg, day 7",0
same,Deaths on day after start of treatment,"ICR mice [7]; female, single iv 5mg/kg, day 0",4
same,Deaths on day after start of treatment,"ICR mice [7]; female, single iv 5mg/kg, day 1",0
same,Deaths on day after start of treatment,"ICR mice [7]; female, single iv 5mg/kg, day 2",1
same,Deaths on day after start of treatment,"ICR mice [7]; female, single iv 5mg/kg, day 3",0
same,Deaths on day after start of treatment,"ICR mice [7]; female, single iv 5mg/kg, day 4",0
same,Deaths on day after start of treatment,"ICR mice [7]; female, single iv 5mg/kg, day 5",0
same,Deaths on day after start of treatment,"ICR mice [7]; female, single iv 5mg/kg, day 6",0
same,Deaths on day after start of treatment,"ICR mice [7]; female, single iv 5mg/kg, day 7",0
same,Deaths on day after start of treatment,"ICR mice [7]; male, single iv 1mg/kg, day 0",0
same,Deaths on day after start of treatment,"ICR mice [7]; male, single iv 1mg/kg, day 1",0
same,Deaths on day after start of treatment,"ICR mice [7]; male, single iv 1mg/kg, day 2",0
same,Deaths on day after start of treatment,"ICR mice [7]; male, single iv 1mg/kg, day 3",0
same,Deaths on day after start of treatment,"ICR mice [7]; male, single iv 1mg/kg, day 4",0
same,Deaths on day after start of treatment,"ICR mice [7]; male, single iv 1mg/kg, day 5",0
same,Deaths on day after start of treatment,"ICR mice [7]; male, single iv 1mg/kg, day 6",0
same,Deaths on day after start of treatment,"ICR mice [7]; male, single iv 1mg/kg, day 7",0
same,Deaths on day after start of treatment,"ICR mice [7]; male, single iv 2.5mg/kg, day 0",0
same,Deaths on day after start of treatment,"ICR mice [7]; male, single iv 2.5mg/kg, day 1",0
same,Deaths on day after start of treatment,"ICR mice [7]; male, single iv 2.5mg/kg, day 2",2
same,Deaths on day after start of treatment,"ICR mice [7]; male, single iv 2.5mg/kg, day 3",0
same,Deaths on day after start of treatment,"ICR mice [7]; male, single iv 2.5mg/kg, day 4",0
same,Deaths on day after start of treatment,"ICR mice [7]; male, single iv 2.5mg/kg, day 5",0
same,Deaths on day after start of treatment,"ICR mice [7]; male, single iv 2.5mg/kg, day 6",0
same,Deaths on day after start of treatment,"ICR mice [7]; male, single iv 2.5mg/kg, day 7",0
same,Deaths on day after start of treatment,"ICR mice [7]; male, single iv 5mg/kg, day 0",5
same,Deaths on day after start of treatment,"ICR mice [7]; male, single iv 5mg/kg, day 1",0
same,Deaths on day after start of treatment,"ICR mice [7]; male, single iv 5mg/kg, day 2",0
same,Deaths on day after start of treatment,"ICR mice [7]; male, single iv 5mg/kg, day 3",0
same,Deaths on day after start of treatment,"ICR mice [7]; male, single iv 5mg/kg, day 4",0
same,Deaths on day after start of treatment,"ICR mice [7]; male, single iv 5mg/kg, day 5",0
same,Deaths on day after start of treatment,"ICR mice [7]; male, single iv 5mg/kg, day 6",0
same,Deaths on day after start of treatment,"ICR mice [7]; male, single iv 5mg/kg, day 7",0
same,LD50 at 7 days,"[8]; female mice, read-out: median lethal dose (LD50)",1.6 mg/kg
same,LD50 at 7 days,"[8]; male mice, read-out: median lethal dose (LD50)",2.95 mg/kg
same,LD50 at 7 days,"[8]; both sexes, mice, read-out: LD50, median lethal dose (dose causing 50% mortality)",2.3 mg/kg
same,"Hemolytic activity (MHC, minimum hemolytic concentration)",horse blood cells,4.65 ± 0.17 µg/mL
same,affinity compared with NPP B1,[9],higher affinity
same,AUC(0-inf),in vivo [10],29300 ng·h/mL
same,AUC(0-t),in vivo [10],22200 ng·h/mL
same,MRT inf,in vivo [10],5.5 h
same,Vd,in vivo [10],0.2 L/kg
same,clearance,in vivo [10],0.5 mL/min/kg
same,half-life,in vivo [10],3.4 h
same,half-life,in vivo [11]; in vivo,8.3 h
same,AUC(0-inf),in vivo [11]; plasma,1680 ng·h/mL
same,AUC(0-t),in vivo [11]; plasma,415 ng·h/mL
same,MRT inf,in vivo [11]; plasma,11.6 h
same,Vd,in vivo [11]; plasma,3.5 L/kg
same,clearance,in vivo [11]; plasma,5 mL/min/kg
